{
  "source": "paper PMC12693167",
  "about": "“Design, Synthesis and Anticancer Activity of 6-Substituted-1-(3,4,5-trimethoxyphenyl)-1H-indole Against Tubulin Polymerisation” (Molecules, 2025)",
  "key": {"HeLa cells": {"tested_on": "HeLa cells", "test": "CCK-8 antiproliferative assay, HeLa", "assay_type": "cell-based", "settings": "Homo sapiens, cell viability (CCK-8), 48 h", "protocol": "(§1) To evaluate the anticancer potential of the synthesized compounds, a panel of six human and murine cancer cell lines representing different tissue origins was selected, including MCF-7 (human breast adenocarcinoma), MDA-MB-231 (human triple-negative breast cancer), A549 (human non-small cell lung cancer), HeLa (human cervical cancer), A375 (human melanoma), and B16-F10 (murine melanoma) (Table 2). […] DMSO was used as the vehicle control, and all experiments were performed in triplicate to ensure reproducibility.\n(§2) Human breast cancer cells (MCF-7), human lung cancer cells (A549), human cervical cancer cells (HeLa), human triple-negative breast cancer cells (MDA-MB-231), and human malignant melanoma cells (A375) were cultured in DMEM. Mouse melanoma cells (B16F10) were maintained in RPMI-1640 medium. All media were supplemented with 10% fetal bovine serum and 1% penicillin-streptomycin (Life Technologies, Carlsbad, CA, USA) and maintained at 37 °C in a humidified atmosphere with 5% CO2.\n(§3) The cytotoxicity of the test compounds was evaluated against MCF-7, A549, HeLa, MDA-MB-231, A375, and B16F10 using the CCK-8 assay. Cells were seeded into 96-well plates at a density of 5000 cells/well. After removing the medium, 100 μL of medium with 0.1% DMSO containing test compounds at different concentrations was added to each well and incubated at 37 °C for another 48 h. The CCK-8 solution was added and incubated for another 1 h, and then, the absorbance was detected with a microplate reader at a wavelength of 450 nm. The IC50 values were calculated by nonlinear regression analysis using GraphPad Prism 8.0.2. All the experiments were repeated at least three times."}, "MCF-7 cells [1]": {"tested_on": "MCF-7 cells", "test": "CCK-8 antiproliferative assay, MCF-7", "assay_type": "cell-based", "settings": "Homo sapiens, MCF7; cell viability (CCK-8), 48 h", "protocol": "as §1, §2, §3"}, "[2]": {"target": "T1, purified porcine brain tubulin (Sus scrofa, UniProt P02554)", "T1 construct": "purified porcine brain tubulin; from tissue; host or cells: porcine brain", "T1 sequence (P02554 whole entry)": "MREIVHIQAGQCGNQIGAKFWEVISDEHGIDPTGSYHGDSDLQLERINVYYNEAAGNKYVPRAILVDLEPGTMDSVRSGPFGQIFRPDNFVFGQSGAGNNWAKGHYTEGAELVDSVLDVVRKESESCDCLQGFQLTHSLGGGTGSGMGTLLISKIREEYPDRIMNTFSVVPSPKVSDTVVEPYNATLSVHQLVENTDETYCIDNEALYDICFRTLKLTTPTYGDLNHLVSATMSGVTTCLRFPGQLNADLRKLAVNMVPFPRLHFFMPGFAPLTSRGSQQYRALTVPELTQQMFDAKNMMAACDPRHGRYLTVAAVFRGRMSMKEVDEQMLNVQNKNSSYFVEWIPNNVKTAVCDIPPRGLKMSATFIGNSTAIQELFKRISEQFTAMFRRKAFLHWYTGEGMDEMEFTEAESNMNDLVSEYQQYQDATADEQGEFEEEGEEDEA", "T1 sequence (P02550 whole entry partner)": "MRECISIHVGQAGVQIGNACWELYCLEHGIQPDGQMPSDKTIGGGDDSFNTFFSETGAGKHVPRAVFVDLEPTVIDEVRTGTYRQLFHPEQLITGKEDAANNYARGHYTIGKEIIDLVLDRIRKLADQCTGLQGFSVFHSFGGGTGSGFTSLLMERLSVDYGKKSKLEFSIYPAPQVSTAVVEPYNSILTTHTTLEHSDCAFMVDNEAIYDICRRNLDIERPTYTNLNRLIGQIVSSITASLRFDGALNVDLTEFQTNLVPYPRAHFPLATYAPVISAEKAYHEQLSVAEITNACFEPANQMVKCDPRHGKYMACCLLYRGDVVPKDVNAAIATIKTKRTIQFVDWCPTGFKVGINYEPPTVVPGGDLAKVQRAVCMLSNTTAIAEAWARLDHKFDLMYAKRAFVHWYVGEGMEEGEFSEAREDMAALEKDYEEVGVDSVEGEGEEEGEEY", "test": "Biolayer interferometry (BLI) binding to tubulin", "settings": "immobilized tubulin, 1:1 binding model, mean ± SD, triplicate", "protocol": "To detect the direct interaction between the synthesized compounds and tubulin, biolayer interferometry (BLI) experiments were performed using purified porcine brain tubulin immobilized on Super Streptavidin (SSA) biosensor [30]. […] Association and dissociation kinetics were monitored in real time, and equilibrium dissociation constants (KD) were determined by global fitting of the sensorgrams to a 1:1 binding model. All measurements were conducted in triplicate, and results are reported as mean ± SD.\nBLI assays were performed on an Octet RED96 instrument (FortéBio, Pall Life Sciences, Menlo Park, CA, USA) at 25 °C in PBS buffer supplemented with 0.02% (v/v) Tween-20 as the running buffer. Biotinylated tubulin proteins (3 μg/mL) were immobilized onto Super Streptavidin (SSA) biosensors. Association and dissociation were monitored for 60 s each. […] Reference subtraction was performed using sensors incubated in running buffer without protein loading to correct for baseline drift. Data were analyzed using Octet Data Analysis software (version 9.0), and equilibrium dissociation constants (KD) were determined by fitting the curves to a 1:1 binding model. All measurements were performed in triplicate, and results are reported as mean ± SD.\nBLI assays were performed on an Octet RED96 instrument (FortéBio, Pall Life Sciences) at 25 °C in PBS buffer supplemented with 0.02% (v/v) Tween-20 as the running buffer. Biotinylated tubulin proteins (3 μg/mL) were immobilized onto Super Streptavidin (SSA) biosensors. Association and dissociation were monitored for 60 s […]\nReference subtraction was performed using sensors incubated in running buffer without protein loading to correct for baseline drift. Data were analyzed using Octet Data Analysis software (version 9.0), and equilibrium dissociation constants (KD) were determined by fitting the curves to a 1:1 binding model. All measurements were performed in triplicate, and results are reported as mean ± SD."}, "MDA-MB-231 cells": {"tested_on": "MDA-MB-231 cells", "test": "CCK-8 antiproliferative assay, MDA-MB-231", "assay_type": "cell-based", "settings": "Homo sapiens, cell viability (CCK-8), 48 h", "protocol": "as §1, §2, §3"}, "A375 cells": {"tested_on": "A375 cells", "test": "CCK-8 antiproliferative assay, A375", "assay_type": "cell-based", "settings": "Homo sapiens, A-375; cell viability (CCK-8), 48 h", "protocol": "as §1, §2, §3"}, "MCF-7 cells [3]": {"tested_on": "MCF-7 cells", "test": "Cell cycle analysis by flow cytometry", "assay_type": "cell-based, human", "settings": "10 μM, 48 h", "protocol": "Given that microtubule polymerization inhibitors are known to disrupt mitosis and induce cell cycle arrest, we evaluated the effect of compound 3g on cell cycle progression in MCF-7 cells by flow cytometry.\nMCF-7 cells were seeded in 6-well plates and cultured overnight. Cells were then treated with compound 3g at concentrations of 0.1, 1, and 10 μM for 48 h. After treatment, cells were collected and fixed in 70% ethanol at 4 °C overnight. The fixed cells were washed and resuspended in staining buffer containing RNase A and propidium iodide (PI), followed by incubation in the dark at 37 °C for 30 min. DNA content was subsequently analyzed by flow cytometry.\nFigure 6 Cell cycle arrest induced by compound 3g. (A) Compound 3g induced G2/M arrest in MCF-7 cells. MCF-7 cells were incubated with varying concentrations of compound 3g (0.1, 1, and 10 μM) for 48 h. The percentages of cells in different phases of the cell cycle were analyzed by FlowJo 10.8.1. (B) Histograms display the percentage of cell cycle distribution after treatment with compound 3g. Data are expressed as mean ± standard deviation from three independent experiments. Statistical significance was determined by one-way ANOVA followed by Tukey’s post hoc test."}},
  "data": [
    {"smiles": "COc1cc(-n2ccc3ccc(-c4ccc(C)c(C#N)c4)cc32)cc(OC)c1OC", "note": "[3g, 2-methyl-5-(1-(3,4,5-trimethoxyphenyl)-1H-indol-6-yl)benzonitrile]", "values": [
      {"measurement": "IC50", "setting": "HeLa cells", "value": "6100 ± 310", "unit": "nM"},
      {"measurement": "IC50", "setting": "MCF-7 cells [1]", "value": "2940 ± 560", "unit": "nM"},
      {"measurement": "KD", "setting": "[2]", "value": "low micromolar range"},
      {"measurement": "Kd", "setting": "[2]", "value": "13000 ± 1170", "unit": "nM"},
      {"measurement": "IC50", "setting": "MDA-MB-231 cells", "value": "1610 ± 4", "unit": "nM"},
      {"measurement": "IC50", "setting": "A375 cells", "value": "570 ± 10", "unit": "nM"},
      {"measurement": "cells in the G2/M phase", "setting": "MCF-7 cells [3]", "value": "marked accumulation"}
    ]}
  ]
}
